Measured values reported in patent EP0405273A2, “Method for producing readily soluble crystalline alfa-L-aspartyl-L-phenylalanine methyl ester” (MITSUI TOATSU CHEMICALS, Inc., priority 1989, dated 1991).
Peptide text beside a SMILES is read from it.

Tests used:
[1] = Solubilization test (time for complete dissolution in water); format: physicochemical; settings: 250 mg ground sample in 250 ml pure water at 26 ± 2°C, stirred at 350 to 360 rpm, stirring and standing repeated every 30 seconds
Procedure: The present invention will be described in detail in the following examples, in which the solubilization test was carried out by the following procedure: Solubilization Test
Into 250 ml of pure water having a temperature of 26 ± 2°C which was being stirred (at 350 to 360 rpm by a magnetic stirrer) was poured 250 mg of a ground α-APM sample. Stirring and standing were repeated every 30 seconds. The time required for the sample to dissolve completely was measured.

[2] = Solubilization of conventionally recrystallized α-APM in water at room temperature; format: physicochemical; settings: 250 mg crushed powder in 250 ml of water at room temperature, stirring and standing alternated every 30 seconds
Text: α-APM purified y conventional recrystallization methods has the disadvantage of poor solubilization (rate of solution) in water.

[3] = widely known property stated in the prior art section; cited from earlier work

| Structure (SMILES) | time required for the sample to dissolve completely [1] [min] | other results |
| --- | --- | --- |
| COC(=O)[C@H](Cc1ccccc1)NC(=O)[C@@H](N)CC(=O)O [Example 1, α-L-aspartyl-L-phenylalanien emthyl ester] (H-Asp-Phe-OMe) | ≤ 5 | – |
| COC(=O)[C@H](Cc1ccccc1)NC(=O)[C@@H](N)CC(=O)O [Example 5, α-L-aspartyl-L-phenylalanien emthyl ester] (H-Asp-Phe-OMe) | ≤ 5 | – |
| COC(=O)[C@H](Cc1ccccc1)NC(=O)[C@@H](N)CC(=O)O [Comparative Example, α-L-aspartyl-L-phenylalanien emthyl ester, reference compound] (H-Asp-Phe-OMe) | 25 | – |
| COC(=O)[C@H](Cc1ccccc1)NC(=O)[C@@H](N)CC(=O)O [α-APM obtained conventionally by recrystallization from a 50] [α-L-aspartyl-L-phenylalanien emthyl ester] (H-Asp-Phe-OMe) | – | time required to dissolve completely [2]: more than 15 minutes |
| COC(=O)[C@H](Cc1ccccc1)NC(=O)[C@@H](N)CC(=O)O [Example 3, α-L-aspartyl-L-phenylalanien emthyl ester] (H-Asp-Phe-OMe) | ≤ 5 | – |
| COC(=O)[C@H](Cc1ccccc1)NC(=O)[C@@H](N)CC(=O)O [Example 4, α-L-aspartyl-L-phenylalanien emthyl ester] (H-Asp-Phe-OMe) | ≤ 5 | – |
| COC(=O)[C@H](Cc1ccccc1)NC(=O)[C@@H](N)CC(=O)O [Example 2, α-L-aspartyl-L-phenylalanien emthyl ester] (H-Asp-Phe-OMe) | ≤ 5 | – |
| COC(=O)[C@H](Cc1ccccc1)NC(=O)[C@@H](N)CC(=O)O [α-APM, α-L-aspartyl-L-phenylalanien emthyl ester] (H-Asp-Phe-OMe) | – | degree of sweetness [3]: about 200 times the sweetness of sucrose |
